The values below come from the NIST ThermoML archive (doi:10.1016/j.fluid.2013.07.010).

SMILES strings stand for the structures. Numbers after ± are expanded uncertainties.

The conditions of series [1]: Crystal; DTA.
The nature of series [2]: Molar enthalpy of transition or fusion. Particulars: Crystal; DSC.

With `Nc1ccc(Oc2ccc(N)cc2)cc1` [4,4'-diaminodiphenyl ether], in series [1], the Normal melting temperature turned out to be 189.52 ± 0.39 °C. The “Molar enthalpy of transition or fusion” value in series [2] stood at 9.05 ± 0.406 kcal/mol.
